Source: ChEMBL document CHEMBL1201862, “PubChem BioAssay data set” (2004)
Values joined by “and” are separate entries in the source; they are usually repeats but may differ in a detail not shown here. Equal values may be shown once. Active and inactive are the calls of the source.

How the values were obtained:
Cytochrome P450 1A2 = biological target: T1, Cytochrome P450 1A2 (Homo sapiens, UniProt P05177);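 also: PubChem cytochrome P450 panel assay, CYP1A2 panel member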
T1 sequence (P05177 whole entry): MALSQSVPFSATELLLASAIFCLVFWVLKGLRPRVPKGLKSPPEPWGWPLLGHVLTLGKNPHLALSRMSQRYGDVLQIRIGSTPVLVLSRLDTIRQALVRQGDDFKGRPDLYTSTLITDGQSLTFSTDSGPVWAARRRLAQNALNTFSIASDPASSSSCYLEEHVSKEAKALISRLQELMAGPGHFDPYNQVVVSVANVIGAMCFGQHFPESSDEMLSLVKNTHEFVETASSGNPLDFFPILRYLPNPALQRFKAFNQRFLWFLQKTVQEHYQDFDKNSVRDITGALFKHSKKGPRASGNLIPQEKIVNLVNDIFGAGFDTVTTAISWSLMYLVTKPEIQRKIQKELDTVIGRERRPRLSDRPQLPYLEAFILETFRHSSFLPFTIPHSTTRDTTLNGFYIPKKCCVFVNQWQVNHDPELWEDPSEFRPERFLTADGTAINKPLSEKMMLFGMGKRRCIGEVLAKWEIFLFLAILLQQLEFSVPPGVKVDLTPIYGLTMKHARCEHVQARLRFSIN

cells = type: functional
Cytochrome P450 3A4 = Cytochrome P450 3A4 (Homo sapiens, UniProt P08684);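 also: CYP3A4 tested as one member of a cytochrome P450 panel screen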
Sequence of Cytochrome P450 3A4 (P08684 whole entry): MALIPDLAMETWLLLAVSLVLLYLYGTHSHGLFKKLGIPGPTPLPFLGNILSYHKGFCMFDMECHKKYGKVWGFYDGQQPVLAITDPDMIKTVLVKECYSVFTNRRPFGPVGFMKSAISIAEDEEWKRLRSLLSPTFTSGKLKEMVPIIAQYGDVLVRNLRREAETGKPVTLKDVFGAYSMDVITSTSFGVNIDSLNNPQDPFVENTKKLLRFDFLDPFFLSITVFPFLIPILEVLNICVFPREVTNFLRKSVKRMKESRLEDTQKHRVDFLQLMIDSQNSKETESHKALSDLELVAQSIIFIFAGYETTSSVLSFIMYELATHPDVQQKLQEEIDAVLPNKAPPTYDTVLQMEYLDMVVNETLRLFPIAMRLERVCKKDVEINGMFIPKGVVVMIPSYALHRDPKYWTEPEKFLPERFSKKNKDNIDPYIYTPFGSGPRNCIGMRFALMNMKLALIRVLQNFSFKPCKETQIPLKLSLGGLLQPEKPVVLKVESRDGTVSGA

[1] = Luminescence Cell-Based Dose Retest to Confirm Inhibitors of Cancer Stem Cells. [Related pubchem assays (depositor defined):AID2717, AID2721]; type: functional; conditions: Homo sapiens
[2] = DRD fibroblast viability loss – cell-based, non-viral oncogenic, luminescence, dose response (AID 1934); type: functional; conditions: Homo sapiens
BJ [3] = assay: BJ-TERT-LT-ST fibroblast viability loss – cell-based, RAS-independent, luminescence, dose response (AID 1935); type: functional; conditions: Homo sapiens;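 also: BJ fibroblasts immortalized with TERT plus LT and ST oncogenes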
BJ [4] = assay: BJ-TERT fibroblast viability loss – cell-based, RAS-independent, luminescence, dose response (AID 1933); type: functional; conditions: Homo sapiens
BJ [5] = assay: cells; type: functional, cell-based; conditions: Homo sapiens
Cytochrome P450 2C9 = Cytochrome P450 2C9 (Homo sapiens, UniProt P11712)
Sequence of Cytochrome P450 2C9 (P11712 whole entry): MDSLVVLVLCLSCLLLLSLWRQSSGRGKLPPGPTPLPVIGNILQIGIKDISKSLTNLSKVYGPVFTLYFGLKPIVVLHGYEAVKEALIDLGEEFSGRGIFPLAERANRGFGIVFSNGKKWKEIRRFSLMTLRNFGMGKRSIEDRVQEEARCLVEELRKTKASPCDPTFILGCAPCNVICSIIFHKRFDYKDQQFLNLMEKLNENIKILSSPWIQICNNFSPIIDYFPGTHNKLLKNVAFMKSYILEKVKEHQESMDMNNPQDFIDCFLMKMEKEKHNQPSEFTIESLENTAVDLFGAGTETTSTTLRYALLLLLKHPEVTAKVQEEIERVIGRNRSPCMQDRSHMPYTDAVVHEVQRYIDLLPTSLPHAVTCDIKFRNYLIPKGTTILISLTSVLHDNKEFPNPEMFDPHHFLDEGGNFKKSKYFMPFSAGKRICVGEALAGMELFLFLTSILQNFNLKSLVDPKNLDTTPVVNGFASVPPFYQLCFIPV

[6] = alpha-synuclein stem-loop luciferase translation blockers – H4 neuroglioma cells, luminescence, confirmation (AID 1988); type: functional, cell-based
[7] = luciferase reporter signal suppression in cells – H4 neuroglioma cells, luminescence, dose response (AID 1990); type: functional, cell-based
[8] = Luminescence Cell-Based Dose Response HTS to Identify Inhibitors of 5'UTR Stem-Loop Driven Prion Protein mRNA Translation in H4 Neuroglioblastoma Cells. [Related pubchem assays: 1827 (Project Summary), 1813 (Primary HTS)]; type: functional
H4 = assay: Luminescence Cell-Based Dose Response HTS to Identify Activators of 5'UTR Stem-Loop Driven Prion Protein mRNA Translation in H4 Neuroglioblastoma Cells. [Related pubchem assays: 1829 (Project Summary), 1814 (Primary HTS)]; type: functional; conditions: Homo sapiens
[9] = Luminescence Cell-Based Dose Response HTS to Identify Activators of Luciferase Translation or Activity in H4 […] Cells. [Related pubchem assays: 1829 (Project Summary), 1814 (Primary HTS)]; type: functional
Cytochrome P450 2C19 = Cytochrome P450 2C19 (Homo sapiens, UniProt P33261); assay: Cytochrome panel assay with activity outcomes. Panel member name: p450-cyp2c19 Compounds with AC50 equal or less than 10 uM are considered active; type: functional; conditions: read-out: AC50
Sequence of Cytochrome P450 2C19 (P33261 whole entry): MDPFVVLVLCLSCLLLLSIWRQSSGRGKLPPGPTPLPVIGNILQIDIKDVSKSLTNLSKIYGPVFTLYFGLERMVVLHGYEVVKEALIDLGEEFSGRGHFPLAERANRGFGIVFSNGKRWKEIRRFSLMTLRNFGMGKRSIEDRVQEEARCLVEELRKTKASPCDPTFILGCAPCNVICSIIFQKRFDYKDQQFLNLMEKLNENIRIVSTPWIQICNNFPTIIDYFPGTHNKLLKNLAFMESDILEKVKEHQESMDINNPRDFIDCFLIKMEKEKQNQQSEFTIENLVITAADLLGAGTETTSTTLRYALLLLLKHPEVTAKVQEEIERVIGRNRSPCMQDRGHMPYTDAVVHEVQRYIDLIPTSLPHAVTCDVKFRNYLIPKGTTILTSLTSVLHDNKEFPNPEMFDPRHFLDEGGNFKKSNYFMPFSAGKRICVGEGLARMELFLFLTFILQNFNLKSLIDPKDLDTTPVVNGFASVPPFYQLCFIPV

[10] = biological target: T2, Rac GTPase-activating protein 1 (Homo sapiens, UniProt Q9H0H5); assay: blockers of MgcRacGAP-driven Rac1 GTP hydrolysis – biochemical, ADP Hunter fluorescence, primary and confirmatory, confirmation (AID 624330); type: functional
T2 sequence (Q9H0H5 whole entry): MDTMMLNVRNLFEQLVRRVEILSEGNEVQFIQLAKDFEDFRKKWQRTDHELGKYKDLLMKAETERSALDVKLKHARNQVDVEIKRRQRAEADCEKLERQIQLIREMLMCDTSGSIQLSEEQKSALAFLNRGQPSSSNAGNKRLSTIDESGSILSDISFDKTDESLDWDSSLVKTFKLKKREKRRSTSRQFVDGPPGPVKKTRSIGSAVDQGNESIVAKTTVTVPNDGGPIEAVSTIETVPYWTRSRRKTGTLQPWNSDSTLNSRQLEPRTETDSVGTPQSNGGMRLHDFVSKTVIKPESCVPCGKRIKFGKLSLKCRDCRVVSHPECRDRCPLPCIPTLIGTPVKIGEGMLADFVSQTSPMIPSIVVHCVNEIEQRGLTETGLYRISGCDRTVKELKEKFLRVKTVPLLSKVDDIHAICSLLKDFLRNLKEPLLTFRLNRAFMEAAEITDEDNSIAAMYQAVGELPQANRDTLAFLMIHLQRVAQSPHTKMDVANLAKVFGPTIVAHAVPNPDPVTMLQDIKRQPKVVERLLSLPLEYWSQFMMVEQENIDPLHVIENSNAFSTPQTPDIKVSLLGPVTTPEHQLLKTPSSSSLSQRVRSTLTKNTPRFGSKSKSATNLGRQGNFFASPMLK

In the case of `CN(CCc1ccc(Cl)c(Cl)c1)[C@H]1CCCC[C@H]1N1CCCC1`, the AC50 (Cytochrome P450 1A2) is reported as 31.6 µM (inconclusive).
With `Cc1ccc(OC(=O)c2ccc(Br)o2)cc1` the IC50 (cells) was 18.5 µM (active).
With `CCNc1ncc2nc(-c3ccc(OC)cc3)c(=O)n(CCC#N)c2n1` the AC50 (Cytochrome P450 1A2) was 10 µM (inconclusive) and the AC50 (Cytochrome P450 3A4) was 15.8 µM (inconclusive).
For `O=C(CN1CCN(c2ccc(Cl)cc2)CC1)Nc1ccc(F)c(F)c1`, the AC50 (Cytochrome P450 1A2) was 14.1 µM (inconclusive) and the AC50 (Cytochrome P450 3A4) was 25.1 µM (inconclusive).
In the case of `Cc1ccc(NC(=O)/C=C/c2ccc3c(c2)OCO3)nc1`, the AC50 [1] is reported as 1.08 µM (active).
In the case of `CN1CCN(CC(=O)Nc2ccc([N+](=O)[O-])cc2C(=O)c2ccccc2)CC1`, the EC50 [2] is reported as > 150 µM (not active), the EC50 (BJ [3]) is reported as > 150 µM (not active) and the EC50 (BJ [4]) is reported as > 150 µM (not active). For the same compound, the EC50 (BJ [5]) was > 150 µM (not active).
In the case of `CN(C)S(=O)(=O)c1ccc(C(=O)Oc2ccccc2)cc1`, the IC50 (cells) is reported as 7.22 µM (active).
With `COc1cccc(Cn2c(=O)c(-c3cn(C)c4ccccc34)nc3cnc(N4CCOCC4)nc32)c1` the AC50 (Cytochrome P450 1A2) was 25.1 µM (inconclusive).
With `COc1ccc2c(CC(=O)NCC3CCC(C(=O)O)CC3)cc(=O)oc2c1` (stereo not given) the AC50 (Cytochrome P450 2C9) was 15.8 µM (inconclusive) and the AC50 (Cytochrome P450 1A2) was 22.4 µM (inconclusive).
In the case of `CCc1nc(SCC(=O)NC2CC2)c2c(C)c(C)sc2n1`, the EC50 [6] is reported as > 120 µM (not active), the EC50 [7] is reported as 16.7 µM (active) and the EC50 [8] is reported as > 120 µM (not active).
With `Cc1cc(C)nc(NC(=NC(=O)Nc2ccc(Cl)cc2)NCCc2c[nH]c3ccccc23)n1` the AC50 [1] was 2.28 µM (active).
In the case of `CCOC(=O)C1CSC(CC(=O)Nc2ccc(Cl)c(Cl)c2)C(=O)N1` (stereo not given), the IC50 (cells) is reported as 36.2 µM (active).
For `Cc1c(C)c2ccc(OCC(=O)Nc3cccnc3)c(C)c2oc1=O`, the EC50 (H4) was 16 µM (active) and the EC50 [9] was 22 µM (active).
With `COc1ccccc1N1CCN(C(=O)c2ccc([N+](=O)[O-])s2)CC1` the IC50 (cells) was 46.4 µM (active).
In the case of `COc1ccc(NN/C=C2/C(=O)NC(=O)N(c3ccc(C)c(C)c3)C2=O)cc1`, the EC50 [6] is reported as > 120 µM (not active), the EC50 [7] is reported as 15.2 µM (active) and the AC50 [1] is reported as 0.716 µM (active). For the same compound, the EC50 [8] was > 120 µM (not active).
In the case of `CCOC(=O)COc1ccc(C(=O)Nc2cccc(Cl)c2C)cc1`, the IC50 (cells) is reported as 0.52 µM (active).
For `COc1ccccc1-n1c(SCC(=O)N2CCCC2)nc2cccnc21`, the AC50 (Cytochrome P450 2C9) was 1 µM (inconclusive) and the AC50 (Cytochrome P450 1A2) was 0.1 µM (inconclusive).
For `O=C1NCCc2c1[nH]c1ccc([N+](=O)[O-])cc21`, the EC50 [6] was 16.3 µM (active), the EC50 [7] was 12.9 µM (active) and the EC50 [8] was 15.6 µM (active).
With `c1cnc(N2CC[C@@]3(CCCNC3)C2)nc1` the AC50 (Cytochrome P450 1A2) was 25.1 µM (inconclusive) and the AC50 (Cytochrome P450 3A4) was 31.6 µM (inconclusive).
With `CC(=O)c1cc2c(ccc3ccccc32)oc1=O` the IC50 (cells) was 15.4 µM (active).
For `O=C(Cc1ccccc1)NC(NCCc1ccccc1)C(Cl)(Cl)Cl` (stereo not given), the AC50 (Cytochrome P450 1A2) was 25.1 µM (inconclusive).
For `CC(C)OCCCNc1nc2c(c(=O)n(Cc3ccccc3F)c(=O)n2C)n1C`, the EC50 [6] was > 120 µM (not active), the EC50 [7] was 16.8 µM (active) and the EC50 [8] was > 120 µM (not active).
In the case of `CCc1ccc(C(=O)COC(=O)c2ccc(Cl)nc2)cc1`, the IC50 (cells) is reported as > 50 µM (active).
In the case of `Cc1ccc(NC(=O)C(C)N2C(=O)C3C4CC(C(Br)C4Br)C3C2=O)cc1` (stereo not given), the AC50 (Cytochrome P450 1A2) is reported as 25.1 µM (inconclusive).
For `COc1ccc2cc(-c3csc(-c4cccnc4)n3)ccc2c1`, the EC50 (H4) was 22 µM (active) and the EC50 [9] was 0.108 µM (inconclusive).
In the case of `COc1ccc2sc(-c3ccc(N(C)C)cc3)c(C#Cc3cncn3C)c2c1`, the AC50 [1] is reported as 1.11 µM (active).
For `O=C(O)c1cc(-c2ccc(-c3ccccc3)cc2)nc2cc3ccccc3cc12`, the AC50 (Cytochrome P450 1A2) was 0.794 µM (inconclusive) and the AC50 (Cytochrome P450 2C19) was 3.98 µM (inconclusive).
In the case of `O=C1CC(N(O)C2CC(=O)N(Cc3ccccc3)C2=O)C(=O)N1Cc1ccccc1` (stereo not given), the AC50 (Cytochrome P450 2C9) is reported as 11.2 µM (inconclusive), the AC50 (Cytochrome P450 1A2) is reported as 39.8 µM (inconclusive) and the AC50 (Cytochrome P450 2C19) is reported as 2 µM (inconclusive).
For `Cc1ccc(/C=C2/C(=O)ON=C2c2ccccc2)o1`, the IC50 [10] was 36.9 µM (active), the EC50 [2] was 12.2 µM (active) and the EC50 (BJ [3]) was > 150 µM (inconclusive). The EC50 (BJ [4]) was 12.8 µM (active) and the EC50 (BJ [5]) was 18.3 µM (active).
For `O=C(Cn1cc([N+](=O)[O-])nc1[N+](=O)[O-])N1CCN(c2ccccc2)CC1`, the IC50 (cells) was 7.01 µM (active).
For `COc1ccc(-c2nc(CS(=O)(=O)CC(=O)NCCCc3ccccc3)c(C)o2)cc1`, the EC50 [6] was 14.5 µM (active), the EC50 [7] was > 120 µM (not active) and the EC50 [8] was > 120 µM (not active).
In the case of `CC(C)c1ccc(C2C3=C(O)OCC3=Nc3cc4c(cc32)OCO4)cc1` (stereo not given), the EC50 [2] is reported as 0.88 µM (active), the EC50 (BJ [3]) is reported as 0.386 µM (inconclusive) and the EC50 (BJ [4]) is reported as 0.746 µM (inconclusive). The EC50 (BJ [5]) was 5.49 µM (inconclusive).
For `COc1ccccc1N1CCN(C(=O)CCc2nnc3ccc(N4CCC(C)CC4)nn23)CC1`, the EC50 [6] was 17.3 µM (active), the EC50 [7] was 11.2 µM (active) and the EC50 [8] was > 120 µM (not active).
With `Cc1cc(C)c(NC(=O)CSCc2c(C)noc2C)c(C)c1` the AC50 [1] was > 195 µM (inactive).
For `CCc1noc(C)c1C(=O)Nc1nc(-c2cc(C)ccc2C)c(C)s1`, the AC50 (Cytochrome P450 2C9) was 7.94 µM (inconclusive), the AC50 (Cytochrome P450 1A2) was 15.8 µM (inconclusive) and the AC50 (Cytochrome P450 2C19) was 7.08 µM (inconclusive).
With `CCOC(=O)C1=C(C)N=C(C)/C(=C(/O)OCC)C1c1ccccc1/C=C/C(=O)OC(C)(C)C` (stereo not given) the AC50 [1] was 3.4 µM (active).
For `COc1ccc(-c2c(-c3cc(OC)cc(OC)c3)n(C)c3ccc(-c4cc(F)cc(OC)c4)cc23)cc1`, the AC50 [1] was > 195 µM (inactive).
In the case of `O=S(=O)(O)c1ccc(/N=N\c2ccc3c(S(=O)(=O)O)cccc3c2O)c2ccccc12`, the AC50 (Cytochrome P450 1A2) is reported as 3.16 µM (inconclusive).
With `O=c1cc(-c2ccncc2)oc2c1ccc1ccccc12` the IC50 (cells) was 17.9 µM (active).
With `COc1ccc(C(=O)O/N=C/c2c(C(F)(F)F)nn(C)c2SCc2ccccc2Cl)cc1` the EC50 [6] was 12 µM (active), the EC50 [7] was 17 µM (active) and the EC50 [8] was 12.8 µM (active).
For `COC(=O)C1=C(C)N=C(C)/C(=C(/O)O[C@@H]2CCCN(Cc3ccccc3)C2)[C@@H]1c1cccc([N+](=O)[O-])c1`, the EC50 [6] was 9.3 µM (active), the EC50 [7] was 12 µM (active) and the EC50 [8] was 14.6 µM (active).
For `Cc1nnc(S)n1/N=C/c1ccc(OCc2ccc(Cl)cc2Cl)cc1`, the IC50 (cells) was 43.8 µM (active).
With `N#CC(C#N)=Cc1ccc([N+](=O)[O-])c(O)c1` the AC50 (Cytochrome P450 2C9) was 31.6 µM (inconclusive), the AC50 (Cytochrome P450 1A2) was 31.6 µM (inconclusive) and the AC50 (Cytochrome P450 3A4) was 1.58 µM (inconclusive).
With `CCn1cc(C(=O)O)c(=O)c2cc3c(cc21)OCO3` [OXOLINIC ACID] the AC50 (Cytochrome P450 1A2) was 5.01 µM (inconclusive) and 2.51 µM (inconclusive).
